Ends that are not written are not given here.
Assays:
Escherichia coli = format: cell-based, Escherichia coli BW25113
Protocol: (§1) Antimicrobial activities were determined by the microtiter broth dilution method recommended by the National Committee of Laboratory Safety and Standards (NCLSS), adapted for AMPs (Wiegand et al, [2008]). Briefly, overnight bacterial cell cultures were brought to an exponential growth state (OD600 = 0.4) in MH broth and diluted to a final concentration of 5 × 10^5 CFU/mL. In all, 1:2 peptide serial dilutions were prepared in 96-well polypropylene plates (Greiner, Frickenhausen, Germany), in MH medium containing 0.2% (w/v) of bovine serum albumin (BSA) and 0.02% glacial acetic acid. […] The lowest concentration with no colonies was taken as MBC. The results are the average of three independent studies.

horse erythrocytes = format: cell-based
Protocol: Peptide toxicity was tested on horse erythrocytes (Sandín et al, [2021]). Horse defibrinated blood was washed three times in phosphate buffer saline (PBS) pH 7.2 by centrifugation at 3× 3000 rpm for 10 min, to remove excess hemoglobin in the supernatant and then diluted tenfold in PBS. Next, 50 μL of erythrocytes were added to a 1.5 mL polypropylene tube and incubated with 50 μL of a 1:2 peptide serial dilution in PBS. An erythrocyte disruption (ED) control was prepared by adding 50 μL of 0.1% TritonX-100 in PBS instead of the peptides and an intact erythrocyte (IC) control by adding 50 μL of PBS alone. All samples and controls were incubated for 2 h at 37 °C. Samples were centrifuged at 3000 rpm for 3 min, and the supernatants were transferred to a polystyrene 96-well plate and inspected for ED by reading the absorbance at 540 nm in a Tecan Spark instrument (Tecan, Männedorf, Switzerland). The results are the average of three independent studies. The hemolysis percentage was calculated as: Hemolysis%=Sample−IC/ED−IC×100

in vitro = format: cell-based; settings: human, MRC-5 cells
Protocol: (§2) Toxicity in MRC-5 and HepG2 cells was tested by the MTT assay, as described (Bello-Madruga et al, [2023]). Cell lines were maintained in Eagle’s minimum essential medium (MEMα) supplemented with 10% fetal bovine serum (FBS). Cells were cultured in 75-cm^2 flasks and then transferred to polystyrene 96-well plates, at 3 × 10^4 cells per well, and incubated overnight for attachment to the well surface. Then culture media was removed and 1:2 peptide serial dilutions in MEMα were added to each well and later incubated for 4 h. After incubation, peptides were removed and 100 μL of 0.5 mg/mL MTT staining solution in MEMα supplemented with 10% FBS was added to cells and incubated for 1.5 h at 37 °C. Formazan crystals in living cells were detected after disruption with 200 μL dimethyl sulfoxide and then absorbance was measured at 570 nm in a Tecan Spark instrument (Tecan, Männedorf, Switzerland). The results are the average of three independent studies.

Listeria monocytogenes = format: cell-based, Listeria monocytogenes ATCC 19112
Protocol: as §1

[1] = tested on: Pseudomonas sp (Pseudomonas aeruginosa); format: cell-based, Pseudomonas aeruginosa ATCC 15915
Protocol: as §1

Acinetobacter baumannii = format: cell-based, Acinetobacter baumannii ATCC 15308
Protocol: as §1

Staphylococcus aureus = format: cell-based, Staphylococcus aureus ATCC 12600
Protocol: as §1

Cytotoxicity, MTT assay = format: cell-based; settings: human, HepG2 cells, 4 h peptide incubation in MEMα, average of three studies, read-out: LC50 (HepG2 cells)
Protocol: as §2

P. aeruginosa 827632 = format: cell-based
Protocol: as §1

E. coli CFT073 = format: cell-based
Protocol: as §1

E. coli 1166795 = format: cell-based
Protocol: as §1

A. baumannii 3880 = format: cell-based
Protocol: as §1

A. baumannii 3878 = format: cell-based
Protocol: as §1

P. aeruginosa 827651 = format: cell-based
Protocol: as §1

Enterococcus faecium = format: cell-based, Enterococcus faecium ATCC 19434
Protocol: as §1

Substance	MIC E. coli (Escherichia coli)	CC50 at 4 h (in vitro)	MIC L. monocytogenes (Listeria monocytogenes)	MIC Pseudomonas sp [1]	MIC A. baumannii (Acinetobacter baumannii)	MIC S. aureus (Staphylococcus aureus)	MBC E. coli (Escherichia coli)	CC50 at 4 h (Cytotoxicity, MTT assay)	MBC L. monocytogenes (Listeria monocytogenes)	MBC P. aeruginosa 827632 (P. aeruginosa 827632)	MIC P. aeruginosa 827632 (P. aeruginosa 827632)	MBC E. coli CFT073 (E. coli CFT073)	MIC E. coli CFT073 (E. coli CFT073)	MBC E. coli 1166795 (E. coli 1166795)	MIC E. coli 1166795 (E. coli 1166795)	MBC A. baumannii 3880 (A. baumannii 3880)	MIC A. baumannii 3880 (A. baumannii 3880)	MBC A. baumannii 3878 (A. baumannii 3878)	MIC A. baumannii 3878 (A. baumannii 3878)	MBC P. aeruginosa 827651 (P. aeruginosa 827651)	also measured
HNLFRKLTHRLFRRNFGYTL-NH2 [HBP-5 [1–20]]	0.4 µM	63 ± 1 µM	1.6 µM	0.4 µM	0.4 µM	6.3 µM	–	–	–	–	–	–	–	–	–	–	–	–	–	–	Hemolysis (250 µM peptide) (horse erythrocytes): 24 ± 2
HNLFRKLTHQLFRRNFGYTLRSV-NH2 [Peptide R10]	0.4 µM	–	1.6 µM	0.8 µM	0.4 µM	6.3 µM	–	–	–	–	–	–	–	–	–	–	–	–	–	–	–
RWHLTHRPKTGYIRVLVH-NH2 [HBP-1]	1.6 µM	> 200 µM	6.3 µM	3.1 µM	1.6 µM	50 µM	1.6 µM	> 200 µM	12.5 µM	25 µM	25 µM	3.1 µM	3.1 µM	1.6 µM	1.6 µM	12.5 µM	12.5 µM	1.6 µM	1.6 µM	50 µM	MIC P. aeruginosa 827651 (P. aeruginosa 827651): 25 µM; MBC E. faecium (Enterococcus faecium): ≥100/ > 100 µM; MIC E. faecium (Enterococcus faecium): ≥100/ > 100 µM; MBC Pseudomonas sp [1]: 3.1 µM; MBC A. baumannii (Acinetobacter baumannii): 1.6 µM; MBC S. aureus (Staphylococcus aureus): > 100 µM
FRFKRKLPKYLLF-NH2 [HBP-3]	3.1 µM	> 200 µM	6.3 µM	6.3 µM	0.8 µM	25 µM	3.1 µM	> 200 µM	12.5 µM	25 µM	25 µM	25 µM	12.5 µM	1.6 µM	1.6 µM	6.3 µM	6.3 µM	6.3 µM	6.3 µM	12.5 µM	MIC P. aeruginosa 827651 (P. aeruginosa 827651): 12.5 µM; MBC E. faecium (Enterococcus faecium): >100/ > 100 µM; MIC E. faecium (Enterococcus faecium): >100/ > 100 µM; MBC Pseudomonas sp [1]: 6.3 µM; MBC A. baumannii (Acinetobacter baumannii): 0.8 µM; MBC S. aureus (Staphylococcus aureus): 50 µM

— paper PMC12223310, “Mining the heparinome for cryptic antimicrobial peptides that selectively kill Gram-negative bacteria” (Molecular Systems Biology, 2025)
